ChEMBL document CHEMBL5034031, “Discovery of Next-Generation Tropomyosin Receptor Kinase Inhibitors for Combating Multiple Resistance Associated with Protein Mutation” (J Med Chem, 2021)

Experiments:
BaF3 [1] = assay: Antiproliferative activity against mouse BaF3 cells transfected with ETV6-wild type TRKA assessed as cell viability incubated for 72 hrs by CCK8 assay; format: functional, cell-based; details: BaF3, 72 h
BaF3 [2] = assay: Antiproliferative activity against mouse BaF3 cells transfected with ETV6-wild type TRKC assessed as cell viability incubated for 72 hrs by CCK8 assay; format: functional, cell-based; details: BaF3, 72 h
BaF3 [3] = format: functional, cell-based; details: Mus musculus, BaF3, 72 h
BaF3 [4] = assay: animal or person; format: functional; details: Mus musculus, BaF3, po; dose 100 mg/kg; time 12-14 day; read-out: TGI
[5] = Toxicity in BALB/c mouse xenografted with mouse BAF3 cells harboring ETV6 fused TRKC G623R mutant assessed as body weight loss at 15 to 30 mg/kg, po administered twice daily for 12 to 14 consecutive days; format: organism-based; details: in vivo, dose lower 15 mg/kg, time lower 12 day, dose upper 30 mg/kg, time upper 14 day
[6] = Clearance in Sprague-Dawley rat at 1 mg/kg, iv measured upto 24 hrs by LC-MS/MS analysis; format: ADME, organism-based; details: in vivo
[7] = AUC(0 to infinity) in Beagle dog at 5 mg/kg, ig measured upto 24 hrs by LC-MS/MS analysis; format: ADME, organism-based, Canis lupus familiaris; design: route […], dose 5 mg/kg, time <=24; details: in vivo, po
[8] = Half life in Beagle dog at 1 mg/kg, iv measured upto 24 hrs by LC-MS/MS analysis; format: ADME, organism-based, Canis lupus familiaris; details: in vivo
[9] = Half life in Beagle dog at 5 mg/kg, ig measured upto 24 hrs by LC-MS/MS analysis; format: ADME, organism-based, Canis lupus familiaris; details: in vivo, po
[10] = Tmax in Beagle dog at 5 mg/kg, ig measured upto 24 hrs by LC-MS/MS analysis; format: ADME, organism-based, Canis lupus familiaris; details: in vivo, po
[11] = Cmax in Beagle dog at 5 mg/kg, ig measured upto 24 hrs by LC-MS/MS analysis; format: ADME, organism-based, Canis lupus familiaris; design: route […], dose 5 mg/kg, time <=24; details: in vivo, po
[12] = Volume of distribution in Beagle dog at 5 mg/kg, ig measured upto 24 hrs by LC-MS/MS analysis; format: ADME, organism-based, Canis lupus familiaris; details: in vivo, po
[13] = Clearance in Beagle dog at 1 mg/kg, iv measured upto 24 hrs by LC-MS/MS analysis; format: ADME, organism-based, Canis lupus familiaris; details: in vivo
[14] = Clearance in Beagle dog at 5 mg/kg, ig measured upto 24 hrs by LC-MS/MS analysis; format: ADME, organism-based, Canis lupus familiaris; details: in vivo, po
[15] = Oral bioavailability in Beagle dog at 5 mg/kg measured upto 24 hrs by LC-MS/MS analysis; format: ADME, organism-based, Canis lupus familiaris; details: in vivo
[16] = Plasma protein binding in rat; format: ADME, cell-free; details: read-out: PPB (converted)
[17] = Plasma protein binding in human; format: ADME, cell-free; details: read-out: PPB (converted)
hERG (KCNH2) = hERG (KCNH2) (Homo sapiens, UniProt Q12809); assay: Inhibition of hERG at 10 uM relative to control
[18] = target: Tyrosine-protein kinase ABL2 (Homo sapiens) (UniProt P42684); assay: Inhibition of ABL2 (unknown origin) at 1 uM relative to control
[19] = target: ALK tyrosine kinase receptor (Homo sapiens) (UniProt Q9UM73); assay: Inhibition of ALK (unknown origin) at 1 uM relative to control
[20] = target: Cytoplasmic tyrosine-protein kinase BMX (Homo sapiens) (UniProt P51813); assay: Inhibition of BMX (unknown origin) at 1 uM relative to control
[21] = target: Calcium/calmodulin-dependent protein kinase type II subunit beta (Homo sapiens) (UniProt Q13554); assay: Inhibition of CAMK2 (unknown origin) at 1 uM relative to control
[22] = target: Serine/threonine-protein kinase Chk1 (Homo sapiens) (UniProt O14757); assay: Inhibition of CHK1 (unknown origin) at 1 uM relative to control
[23] = target: Dual specificity protein kinase CLK2 (Homo sapiens) (UniProt P49760); assay: Inhibition of CLK2 (unknown origin) at 1 uM relative to control
[24] = target: Serine/threonine-protein kinase DCLK2 (Homo sapiens) (UniProt Q8N568); assay: Inhibition of DCK2 (unknown origin) at 1 uM relative to control
[25] = target: Mitogen-activated protein kinase 3 (Homo sapiens) (UniProt P27361); assay: Inhibition of ERK1 (unknown origin) at 1 uM relative to control
[26] = target: Focal adhesion kinase 1 (Homo sapiens) (UniProt Q05397); assay: Inhibition of FAK (unknown origin) at 1 uM relative to control
[27] = target: Vascular endothelial growth factor receptor 1 (Homo sapiens) (UniProt P17948); assay: Inhibition of FLT1 (unknown origin) at 1 uM relative to control
[28] = target: Vascular endothelial growth factor receptor 2 (Homo sapiens) (UniProt P35968); assay: Inhibition of KDR (unknown origin) at 1 uM relative to control
[29] = target: Maternal embryonic leucine zipper kinase (Homo sapiens) (UniProt Q14680); assay: Inhibition of MELK (unknown origin) at 1 uM relative to control
[30] = target: Misshapen-like kinase 1 (Homo sapiens) (UniProt Q8N4C8); assay: Inhibition of MINK1 (unknown origin) at 1 uM relative to control
[31] = target: Serine/threonine-protein kinase mTOR (Homo sapiens) (UniProt P42345); assay: Inhibition of mTOR (unknown origin) at 1 uM relative to control
[32] = target: Serine/threonine-protein kinase Nek6 (Homo sapiens) (UniProt Q9HC98); assay: Inhibition of NEK6 (unknown origin) at 1 uM relative to control
[33] = target: PAS domain-containing serine/threonine-protein kinase (Homo sapiens) (UniProt Q96RG2); assay: Inhibition of PASK (unknown origin) at 1 uM relative to control
[34] = target: Serine/threonine-protein kinase pim-1 (Homo sapiens) (UniProt P11309); assay: Inhibition of PIM1 (unknown origin) at 1 uM relative to control
[35] = target: NT-3 growth factor receptor (Homo sapiens) (UniProt Q16288); assay: Inhibition of TRKC (unknown origin) at 1 uM relative to control
[36] = Toxicity in BALB/c mouse xenografted with mouse BAF3 cells harboring TMP3 fused wild type TRKA assessed as body weight loss at 15 mg/kg, po administered twice daily for 12 to 14 consecutive days; format: organism-based; details: in vivo, time 12-14 day
[37] = Toxicity in BALB/c mouse xenografted with mouse BAF3 cells harboring TMP3 fused wild type TRKA assessed as mortality at 15 mg/kg, po administered twice daily for 12 to […] consecutive days; format: organism-based; details: in vivo, time 12-14 day
[38] = target: High affinity nerve growth factor receptor (Homo sapiens, UniProt P04629)
[39] = target: High affinity nerve growth factor receptor (Homo sapiens, UniProt P04629, G595R)

Chain of hERG (KCNH2) (Q12809 whole entry): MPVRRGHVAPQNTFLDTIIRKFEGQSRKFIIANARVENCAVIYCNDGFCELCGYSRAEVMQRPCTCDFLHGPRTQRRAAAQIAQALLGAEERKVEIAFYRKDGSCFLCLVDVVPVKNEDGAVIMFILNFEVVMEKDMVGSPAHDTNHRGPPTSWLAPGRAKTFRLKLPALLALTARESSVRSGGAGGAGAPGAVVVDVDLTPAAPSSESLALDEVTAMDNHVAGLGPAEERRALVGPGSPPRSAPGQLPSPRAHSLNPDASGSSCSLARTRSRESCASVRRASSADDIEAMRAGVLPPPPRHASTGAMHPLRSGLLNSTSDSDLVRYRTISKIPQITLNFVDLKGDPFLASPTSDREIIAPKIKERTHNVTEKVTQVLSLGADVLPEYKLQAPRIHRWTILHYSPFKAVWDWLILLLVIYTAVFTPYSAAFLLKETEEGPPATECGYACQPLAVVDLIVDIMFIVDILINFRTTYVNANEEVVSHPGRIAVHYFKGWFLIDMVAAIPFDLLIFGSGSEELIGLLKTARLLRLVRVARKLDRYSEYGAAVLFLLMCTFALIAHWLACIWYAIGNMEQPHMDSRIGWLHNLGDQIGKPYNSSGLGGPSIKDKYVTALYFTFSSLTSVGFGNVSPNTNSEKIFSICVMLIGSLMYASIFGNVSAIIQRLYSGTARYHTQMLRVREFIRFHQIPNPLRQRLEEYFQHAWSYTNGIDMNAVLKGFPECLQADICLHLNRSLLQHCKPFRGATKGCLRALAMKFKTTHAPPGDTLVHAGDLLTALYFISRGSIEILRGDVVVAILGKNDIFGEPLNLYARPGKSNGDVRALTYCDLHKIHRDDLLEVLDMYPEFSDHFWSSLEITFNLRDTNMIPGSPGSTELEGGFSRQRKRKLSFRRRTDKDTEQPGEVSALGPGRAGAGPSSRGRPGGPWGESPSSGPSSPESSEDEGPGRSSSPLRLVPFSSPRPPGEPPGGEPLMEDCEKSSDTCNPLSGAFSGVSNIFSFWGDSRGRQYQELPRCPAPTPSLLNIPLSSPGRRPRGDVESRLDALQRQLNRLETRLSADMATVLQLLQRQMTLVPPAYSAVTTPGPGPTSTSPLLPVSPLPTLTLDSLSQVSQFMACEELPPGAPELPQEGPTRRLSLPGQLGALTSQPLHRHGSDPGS
Chain of NT-3 growth factor receptor (Homo sapiens) (Q16288 32-839 limits assumed): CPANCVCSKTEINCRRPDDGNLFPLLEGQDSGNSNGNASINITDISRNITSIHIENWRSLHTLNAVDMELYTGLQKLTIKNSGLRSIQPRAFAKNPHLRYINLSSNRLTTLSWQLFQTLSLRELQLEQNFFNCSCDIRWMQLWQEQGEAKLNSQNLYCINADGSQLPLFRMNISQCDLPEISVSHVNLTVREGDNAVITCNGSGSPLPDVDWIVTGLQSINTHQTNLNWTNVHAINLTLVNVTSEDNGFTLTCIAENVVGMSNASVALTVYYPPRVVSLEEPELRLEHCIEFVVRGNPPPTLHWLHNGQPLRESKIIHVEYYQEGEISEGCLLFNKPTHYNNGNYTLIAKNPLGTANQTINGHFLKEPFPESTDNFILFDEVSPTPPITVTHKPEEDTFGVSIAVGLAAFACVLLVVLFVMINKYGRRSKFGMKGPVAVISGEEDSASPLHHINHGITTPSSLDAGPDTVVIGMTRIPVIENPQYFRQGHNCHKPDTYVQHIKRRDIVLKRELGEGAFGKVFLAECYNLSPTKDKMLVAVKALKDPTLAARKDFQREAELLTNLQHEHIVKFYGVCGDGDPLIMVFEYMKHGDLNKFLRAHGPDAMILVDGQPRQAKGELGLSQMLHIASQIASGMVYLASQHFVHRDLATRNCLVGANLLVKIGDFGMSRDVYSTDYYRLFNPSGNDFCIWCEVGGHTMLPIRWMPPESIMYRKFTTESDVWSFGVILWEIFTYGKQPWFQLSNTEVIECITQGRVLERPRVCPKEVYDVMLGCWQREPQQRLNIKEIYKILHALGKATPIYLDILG
Chain of Focal adhesion kinase 1 (Homo sapiens) (Q05397 2-1052 limits assumed): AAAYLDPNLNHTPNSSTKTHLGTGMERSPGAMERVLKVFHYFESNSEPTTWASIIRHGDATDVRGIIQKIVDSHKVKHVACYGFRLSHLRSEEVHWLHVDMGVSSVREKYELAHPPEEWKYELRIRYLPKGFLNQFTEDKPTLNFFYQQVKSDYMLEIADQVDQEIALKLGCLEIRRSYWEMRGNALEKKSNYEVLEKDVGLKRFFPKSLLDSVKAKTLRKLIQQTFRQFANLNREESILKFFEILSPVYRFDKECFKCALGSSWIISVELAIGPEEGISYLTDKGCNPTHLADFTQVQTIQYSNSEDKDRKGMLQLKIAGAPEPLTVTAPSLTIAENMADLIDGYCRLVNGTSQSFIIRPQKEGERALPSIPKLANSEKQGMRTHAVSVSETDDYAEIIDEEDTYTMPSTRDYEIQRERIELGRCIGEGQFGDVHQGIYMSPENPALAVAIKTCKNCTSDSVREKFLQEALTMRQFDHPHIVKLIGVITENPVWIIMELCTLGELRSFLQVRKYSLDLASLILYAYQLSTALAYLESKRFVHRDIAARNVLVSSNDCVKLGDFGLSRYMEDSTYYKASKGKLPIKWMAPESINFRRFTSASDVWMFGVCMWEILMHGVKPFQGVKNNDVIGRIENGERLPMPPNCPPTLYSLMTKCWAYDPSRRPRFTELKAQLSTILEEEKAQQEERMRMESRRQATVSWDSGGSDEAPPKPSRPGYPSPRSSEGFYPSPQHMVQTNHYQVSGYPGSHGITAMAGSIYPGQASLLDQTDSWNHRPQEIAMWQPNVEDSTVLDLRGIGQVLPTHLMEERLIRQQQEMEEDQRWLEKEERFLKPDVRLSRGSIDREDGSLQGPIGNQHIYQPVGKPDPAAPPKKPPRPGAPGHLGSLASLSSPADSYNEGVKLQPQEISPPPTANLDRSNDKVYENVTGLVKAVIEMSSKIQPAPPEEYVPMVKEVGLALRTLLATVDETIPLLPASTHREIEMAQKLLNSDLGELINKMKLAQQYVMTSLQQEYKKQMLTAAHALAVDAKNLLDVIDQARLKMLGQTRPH
Chain of PAS domain-containing serine/threonine-protein kinase (Homo sapiens) (Q96RG2 whole entry, the tested form may be a part): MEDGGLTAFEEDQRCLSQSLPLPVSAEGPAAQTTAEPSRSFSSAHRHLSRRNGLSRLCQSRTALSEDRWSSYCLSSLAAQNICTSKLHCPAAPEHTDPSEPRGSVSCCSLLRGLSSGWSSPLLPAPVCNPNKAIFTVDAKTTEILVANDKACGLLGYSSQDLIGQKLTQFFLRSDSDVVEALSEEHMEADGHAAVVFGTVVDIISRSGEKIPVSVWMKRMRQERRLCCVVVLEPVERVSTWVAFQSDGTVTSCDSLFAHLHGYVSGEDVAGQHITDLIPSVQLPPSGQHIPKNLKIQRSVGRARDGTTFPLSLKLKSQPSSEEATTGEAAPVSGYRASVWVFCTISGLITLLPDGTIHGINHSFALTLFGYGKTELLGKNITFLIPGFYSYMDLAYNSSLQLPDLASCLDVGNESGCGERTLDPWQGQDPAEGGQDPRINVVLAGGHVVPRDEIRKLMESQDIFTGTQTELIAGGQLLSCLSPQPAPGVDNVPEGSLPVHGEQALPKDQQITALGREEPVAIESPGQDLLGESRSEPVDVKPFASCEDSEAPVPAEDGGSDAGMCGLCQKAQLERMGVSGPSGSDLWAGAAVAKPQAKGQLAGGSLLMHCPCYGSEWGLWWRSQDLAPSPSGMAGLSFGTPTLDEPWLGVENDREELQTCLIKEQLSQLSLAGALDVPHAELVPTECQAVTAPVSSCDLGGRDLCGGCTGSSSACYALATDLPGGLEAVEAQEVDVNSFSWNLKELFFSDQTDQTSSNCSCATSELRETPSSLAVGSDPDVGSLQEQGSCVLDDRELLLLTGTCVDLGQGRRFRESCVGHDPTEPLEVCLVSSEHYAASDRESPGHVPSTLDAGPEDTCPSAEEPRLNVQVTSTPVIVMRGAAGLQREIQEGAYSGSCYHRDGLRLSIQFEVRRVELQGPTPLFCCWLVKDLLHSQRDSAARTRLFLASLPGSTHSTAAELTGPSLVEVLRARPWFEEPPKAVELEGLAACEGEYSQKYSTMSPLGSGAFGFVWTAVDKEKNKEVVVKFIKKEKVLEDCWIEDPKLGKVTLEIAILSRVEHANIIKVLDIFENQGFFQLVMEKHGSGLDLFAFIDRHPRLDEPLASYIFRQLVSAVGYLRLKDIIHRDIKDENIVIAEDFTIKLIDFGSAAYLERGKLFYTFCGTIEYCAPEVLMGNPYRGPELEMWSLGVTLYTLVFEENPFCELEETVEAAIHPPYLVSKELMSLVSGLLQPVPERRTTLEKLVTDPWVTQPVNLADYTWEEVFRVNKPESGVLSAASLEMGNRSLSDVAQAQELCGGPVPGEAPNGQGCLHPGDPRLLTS
Chain of Serine/threonine-protein kinase DCLK2 (Homo sapiens) (Q8N568 whole entry): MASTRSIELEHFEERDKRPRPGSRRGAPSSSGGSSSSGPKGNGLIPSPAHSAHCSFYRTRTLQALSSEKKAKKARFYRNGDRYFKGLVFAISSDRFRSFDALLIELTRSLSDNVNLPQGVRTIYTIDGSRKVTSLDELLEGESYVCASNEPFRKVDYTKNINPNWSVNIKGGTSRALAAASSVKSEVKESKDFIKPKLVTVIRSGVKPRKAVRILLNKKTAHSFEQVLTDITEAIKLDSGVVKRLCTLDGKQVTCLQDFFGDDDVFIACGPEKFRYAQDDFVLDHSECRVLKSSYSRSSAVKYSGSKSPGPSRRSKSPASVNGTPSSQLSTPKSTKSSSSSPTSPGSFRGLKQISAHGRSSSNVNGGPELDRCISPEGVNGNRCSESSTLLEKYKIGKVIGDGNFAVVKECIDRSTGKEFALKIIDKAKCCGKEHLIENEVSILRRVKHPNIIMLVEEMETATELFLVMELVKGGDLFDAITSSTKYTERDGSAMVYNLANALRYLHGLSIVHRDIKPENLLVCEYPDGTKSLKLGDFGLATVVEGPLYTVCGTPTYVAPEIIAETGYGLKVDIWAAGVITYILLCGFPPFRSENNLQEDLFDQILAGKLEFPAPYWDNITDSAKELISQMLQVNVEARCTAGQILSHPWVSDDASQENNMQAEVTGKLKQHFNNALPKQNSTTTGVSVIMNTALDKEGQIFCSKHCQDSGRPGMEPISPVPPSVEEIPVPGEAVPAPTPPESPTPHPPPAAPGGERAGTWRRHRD

**Q.** Which IC50 (BaF3 [1]) does the source give for `C[C@@H](Nc1ccn2ncc(-c3cnn(CCO)c3)c2n1)c1cc(F)ccc1OCC(F)F` here?
**A.** 0.2 nM

**Q.** What about the IC50 (BaF3 [2]) of the same molecule?
**A.** 0.2 nM

**Q.** And the IC50 (BaF3 [3])?
**A.** 0.2 nM

**Q.** What about the inhibition in vivo at 100 mg/kg (BaF3 [4]) of the same molecule?
**A.** 99%

**Q.** What about the Activity [5] of the same molecule?
**A.** Non-Toxic

**Q.** And the clearance [6]?
**A.** 83.3 mL/min/kg

**Q.** What about the AUC(0-inf) [7] of the same molecule?
**A.** 9630 ng·h/mL

**Q.** And the half-life [8]?
**A.** 7.2 h

**Q.** What about the half-life [9] of the same molecule?
**A.** 6.28 h

**Q.** And the Tmax [10]?
**A.** 0.83 h

**Q.** And the Cmax [11]?
**A.** 1570 ng/mL

**Q.** What about the Vz [12] of the same molecule?
**A.** 4.77 L/kg

**Q.** And the clearance [13]?
**A.** 7.83 mL/min/kg

**Q.** And the CL/F [14]?
**A.** 9.17 mL/min/kg

**Q.** What about the bioavailability [15] of the same molecule?
**A.** 92%

**Q.** What about the fraction unbound [16] of the same molecule?
**A.** 0.121

**Q.** What about the fraction unbound [17] of the same molecule?
**A.** 0.044

**Q.** What about the inhibition at 10 µM (hERG (KCNH2)) of the same molecule?
**A.** 23%

**Q.** What about the inhibition [18] of the same molecule?
**A.** > 80%

**Q.** What about the inhibition [19] of the same molecule?
**A.** > 80%

**Q.** What about the inhibition [20] of the same molecule?
**A.** > 80%

**Q.** What about the inhibition [21] of the same molecule?
**A.** < 50%

**Q.** And the inhibition [22]?
**A.** < 50%

**Q.** What about the inhibition [23] of the same molecule?
**A.** < 50%

**Q.** And the inhibition [24]?
**A.** < 50%

**Q.** What about the inhibition [25] of the same molecule?
**A.** < 50%

**Q.** What about the inhibition [26] of the same molecule?
**A.** > 80%

**Q.** And the inhibition [27]?
**A.** < 50%

**Q.** What about the inhibition [28] of the same molecule?
**A.** < 50%

**Q.** What about the inhibition [29] of the same molecule?
**A.** < 50%

**Q.** What about the inhibition [30] of the same molecule?
**A.** < 50%

**Q.** What about the inhibition [31] of the same molecule?
**A.** < 50%

**Q.** What about the inhibition [32] of the same molecule?
**A.** < 50%

**Q.** And the inhibition [33]?
**A.** < 50%

**Q.** What about the inhibition [34] of the same molecule?
**A.** < 50%

**Q.** What about the inhibition [35] of the same molecule?
**A.** > 80%

**Q.** And the Activity [36]?
**A.** Non-Toxic

**Q.** What about the Activity [37] of the same molecule?
**A.** Non-Toxic

**Q.** What about the IC50 [38] of the same molecule?
**A.** 0.7 nM

**Q.** What about the IC50 [39] of the same molecule?
**A.** 0.2 nM
